Earlier results, collected in patent US10034846B2, “Famciclovir and celecoxib combination therapy for functional somatic syndromes” (INNOVATIVE MED CONCEPTS, LLC, priority 2012, dated 2018).

Tested on: fibromyalgia patients
Details: Kendall et al., J. Rheumatology (2004) 31, 783-784

## CC(C)[C@H](N)C(=O)OCCOCn1cnc2c(=O)[nH]c(N)nc21 [valacyclovir]
  Treatment of fibromyalgia patients: not successful
